# Measurements from US9169254B2, “Spiroimidazolone derivative” (Chugai Seiyaku Kabushiki Kaisha, priority 2009, dated 2015).
# Biological target: T1, human PTH1 receptor (Homo sapiens, UniProt Q03431)
# T1 sequence (Q03431 27-593): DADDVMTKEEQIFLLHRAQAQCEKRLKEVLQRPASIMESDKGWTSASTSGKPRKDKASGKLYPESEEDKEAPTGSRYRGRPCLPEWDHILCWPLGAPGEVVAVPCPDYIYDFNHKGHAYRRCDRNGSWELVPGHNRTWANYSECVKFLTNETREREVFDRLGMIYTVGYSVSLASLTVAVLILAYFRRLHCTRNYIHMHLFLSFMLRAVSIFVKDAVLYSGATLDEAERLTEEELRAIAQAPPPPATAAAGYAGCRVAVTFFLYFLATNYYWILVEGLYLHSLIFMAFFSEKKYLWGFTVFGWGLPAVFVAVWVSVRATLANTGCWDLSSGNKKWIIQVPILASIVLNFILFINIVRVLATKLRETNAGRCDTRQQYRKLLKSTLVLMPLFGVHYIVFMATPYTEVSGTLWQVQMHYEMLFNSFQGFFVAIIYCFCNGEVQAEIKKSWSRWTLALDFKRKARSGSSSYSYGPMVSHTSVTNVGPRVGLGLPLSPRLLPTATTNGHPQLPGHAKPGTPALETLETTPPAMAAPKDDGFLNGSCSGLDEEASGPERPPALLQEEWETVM
# Test: In vitro cAMP signal activity in HKRK-B7 cells (LLC-PK1 cells overexpressing the human PTH1 receptor)
# Type: cell-based
# Settings: 0.1 µM
row,SMILES,cAMP production activity (%)
1,"Cc1cc(S(=O)(=O)NCC(F)(F)C(F)(F)C(F)(F)F)ccc1CCS(=O)(=O)N1CCC2(CC1)N=C(c1cccc(C(F)(F)F)c1)NC2=O [Compound 667, N-(2,2,3,3,4,4,4-Heptafluoro-butyl)-3-methyl-4-{2-[4-oxo-2-(3-trifluoromethyl-phenyl)-1,3,8-triaza-spiro[4.5]dec-1-ene-8-sulfonyl]-ethyl}-benzenesulfonamide]",40

# Same assay, conditions: HKRK-B7 cells; compound at 1×10^−3 M; cAMP produced as percentage of that produced by hPTH(1-34) at 100 nM
row,SMILES,cAMP production activity (%)
1,"CN(C)C(=O)n1ccc2cccc(CCS(=O)(=O)N3CCC4(CC3)N=C(C3CCCCC3)NC4=O)c21 [Compound 647, 7-[2-(2-cyclohexyl-4-oxo-1,3,8-triaza-spiro[4.5]dec-1-ene-8-sulfonyl)-ethyl]-indole-1-carboxylic acid dimethylamide]",104
2,"O=C1NC(C2CCCCC2)=NC12CCN(S(=O)(=O)CCc1cccc3ncccc13)CC2 [Compound 648, 2-cyclohexyl-8-(2-quinolin-5-yl-ethanesulfonyl)-1,3,8-triaza-spiro[4.5]dec-1-en-4-one]",61
3,"O=C(c1c[nH]c2cccc(CCS(=O)(=O)N3CCC4(CC3)N=C(C3CCCCC3)NC4=O)c12)C(F)(F)F [Compound 649, 2-cyclohexyl-8-{2-[3-(2,2,2-trifluoro-acetyl)-1H-indol-4-yl]-ethanesulfonyl}-1,3,8-triaza-spiro[4.5]dec-1-en-4-one]",40
4,"CC(C)n1ccc2c(CCS(=O)(=O)N3CCC4(CC3)N=C(C3CCCCC3)NC4=O)cccc21 [Compound 650, 2-cyclohexyl-8-[2-(1-isopropyl-1H-indol-4-yl)-ethanesulfonyl]-1,3,8-triaza-spiro[4.5]dec-1-en-4-one]",55
5,"O=C1NC(C2CCCCC2)=NC12CCN(S(=O)(=O)CCc1cccc3c1ccn3CCCCO)CC2 [Compound 651, 2-cyclohexyl-8-{2-[1-(4-hydroxy-butyl)-1H-indol-4-yl]-ethanesulfonyl}-1,3,8-triaza-spiro[4.5]dec-1-en-4-one]",54
6,"CC(=O)Nc1ccc(CCS(=O)(=O)N2CCC3(CC2)N=C(C2CCCCC2)NC3=O)c(C#N)c1 [Compound 652, N-{3-cyano-4-[2-(2-cyclohexyl-4-oxo-1,3,8-triaza-spiro[4.5]dec-1-ene-8-sulfonyl)-ethyl]-phenyl}-acetamide]",63
7,"O=C1NC(c2cccc(OC(F)(F)F)c2)=NC12CCN(S(=O)(=O)CCc1cccc3cnccc13)CC2 [Compound 653, 8-(2-Isoquinolin-5-yl-ethanesulfonyl)-2-(3-trifluoromethoxy-phenyl)-1,3,8-triaza-spiro[4.5]dec-1-en-4-one]",67
8,"O=C1NC(c2cccc(OC(F)(F)F)c2)=NC12CCN(S(=O)(=O)CCc1cccc3ncccc13)CC2 [Compound 654, 8-(2-quinolin-5-yl-ethanesulfonyl)-2-(3-trifluoromethoxy-phenyl)-1,3,8-triaza-spiro[4.5]dec-1-en-4-one]",50
9,"COc1cc(NC(C)=O)ccc1CCS(=O)(=O)N1CCC2(CC1)N=C(C1CCC(C)CC1)NC2=O (stereo not shown) [Compound 655, N-(3-Methoxy-4-{2-[2-(4-methyl-cyclohexyl)-4-oxo-1,3,8-triaza-spiro[4.5]dec-1-ene-8-sulfonyl]-ethyl}-phenyl)-acetamide]",74
10,"Cc1cc(N2C(C)(C)C(=O)NS2(=O)=O)cc(C)c1CCS(=O)(=O)N1CCC2(CC1)N=C(C1CCC(C)CC1)NC2=O (stereo not shown) [Compound 656, 8-{2-[4-(3,3-dimethyl-1,1,4-trioxo-1λ^6-[1,2,5]thiadiazolidin-2-yl)-2,6-dimethyl-phenyl]-ethanesulfonyl}-2-(4-methyl-cyclohexyl)-1,3,8-triaza-spiro[4.5]dec-1-en-4-one]",14
11,"CCCCCCCCCC1=NC2(CCN(S(=O)(=O)CCc3ccc(N4CCOCC4=O)cc3C)CC2)C(=O)N1 [Compound 657, 8-{2-[2-Methyl-4-(3-oxo-morpholin-4-yl)-phenyl]-ethanesulfonyl}-2-nonyl-1,3,8-triaza-spiro[4.5]dec-1-en-4-one]",124
12,"CC(C)COC(=O)NCc1ccc(CCS(=O)(=O)N2CCC3(CC2)N=C(C2CCCCC2)NC3=O)cc1 [Compound 658, {4-[2-(2-Cyclohexyl-4-oxo-1,3,8-triaza-spiro[4.5]dec-1-ene-8-sulfonyl)-ethyl]-benzyl}-carbamic acid isobutyl ester]",84
13,"O=C(CO)NCc1ccc(CCS(=O)(=O)N2CCC3(CC2)N=C(C2CCCCC2)NC3=O)cc1 [Compound 659, N-{4-[2-(2-cyclohexyl-4-oxo-1,3,8-triaza-spiro[4.5]dec-1-ene-8-sulfonyl)-ethyl]-benzyl}-2-hydroxy-acetamide]",46
14,"O=C(CNc1ccc(CCS(=O)(=O)N2CCC3(CC2)N=C(C2CCCCC2)NC3=O)c(C(F)(F)F)c1)NCCCCO [Compound 660, 2-{4-[2-(2-cyclohexyl-4-oxo-1,3,8-triaza-spiro[4.5]dec-1-ene-8-sulfonyl)-ethyl]-3-trifluoromethyl-phenylamino}-N-(4-hydroxy-butyl)-acetamide]",60
15,"CC(C)COC(=O)Nc1ccc(CCS(=O)(=O)N2CCC3(CC2)N=C(C2CCCCC2)NC3=O)c(C(F)(F)F)c1 [Compound 661, {4-[2-(2-cyclohexyl-4-oxo-1,3,8-triaza-spiro[4.5]dec-1-ene-8-sulfonyl)-ethyl]-3-trifluoromethyl-phenyl}-carbamic acid isobutyl ester]",45
16,"O=C(Nc1ccc(CCS(=O)(=O)N2CCC3(CC2)N=C(C2CCCCC2)NC3=O)c(C(F)(F)F)c1)c1ccccc1 [Compound 662, N-{4-[2-(2-cyclohexyl-4-oxo-1,3,8-triaza-spiro[4.5]dec-1-ene-8-sulfonyl)-ethyl]-3-trifluoromethyl-phenyl}-benzamide]",23
17,"O=C1NC(C2CCCCC2)=NC12CCN(S(=O)(=O)CCc1ccc3[nH]c(=O)sc3c1)CC2 [Compound 663, 2-cyclohexyl-8-[2-(2-oxo-2,3-dihydro-benzothiazol-6-yl)-ethanesulfonyl]-1,3,8-triaza-spiro[4.5]dec-1-en-4-one]",27
18,"CC(=O)NCCNS(=O)(=O)c1ccc(CCS(=O)(=O)N2CCC3(CC2)N=C(C2CCCCC2)NC3=O)c(C)c1 [Compound 664, N-(2-{4-[2-(2-cyclohexyl-4-oxo-1,3,8-triaza-spiro[4.5]dec-1-ene-8-sulfonyl)-ethyl]-3-methyl-benzenesulfonylamino}-ethyl)-acetamide]",77
19,"Cc1cc(NCC(=O)NCCN(C)C)ccc1CCS(=O)(=O)N1CCC2(CC1)N=C(c1cccc(OC(F)(F)F)c1)NC2=O [Compound 665, N-(2-Dimethylamino-ethyl)-2-(3-methyl-4-{2-[4-oxo-2-(3-trifluoromethoxy-phenyl)-1,3,8-triaza-spiro[4.5]dec-1-ene-8-sulfonyl]-ethyl}-phenylamino)-acetamide]",54
20,"Cc1cc(C(=O)N2C[C@@H](C)O[C@@H](C)C2)ccc1CCS(=O)(=O)N1CCC2(CC1)N=C(c1cccc(OC(F)(F)F)c1)NC2=O [Compound 666, 8-{2-[4-((2R,6S)-2,6-dimethyl-morpholine-4-carbonyl)-2-methyl-phenyl]-ethanesulfonyl}-2-(3-trifluoromethoxy-phenyl)-1,3,8-triaza-spiro[4.5]dec-1-en-4-one]",51
21,"COc1cccc(CCS(=O)(=O)N2CCC3(CC2)N=C([C@H]2CC[C@H](C)CC2)NC3=O)c1C [Compound 668, 8-[2-(3-Methoxy-2-methyl-phenyl)-ethanesulfonyl]-2-(4-methyl-cyclohexyl)-1,3,8-triaza-spiro[4.5]dec-1-en-4-one]",40
22,"COc1c(N(C)C(=O)OC(C)(C)C)cc(C)c(CCS(=O)(=O)N2CCC3(CC2)N=C([C@H]2CC[C@H](C)CC2)NC3=O)c1C [Compound 669, (2-methoxy-3,5-dimethyl-4-{2-[2-(4-methyl-cyclohexyl)-4-oxo-1,3,8-triaza-spiro[4.5]dec-1-ene-8-sulfonyl]-ethyl}-phenyl)-methyl-carbamic acid tert-butyl ester]",58
23,"CCCCCCCCCC1=NC2(CCN(S(=O)(=O)CCc3ccc(N4C(=O)CC[C@H]4CO)cc3C)CC2)C(=O)N1 [Compound 670, 8-{2-[4-((S)-2-Hydroxymethyl-5-oxo-pyrrolidin-1-yl)-2-methyl-phenyl]-ethanesulfonyl}-2-nonyl-1,3,8-triaza-spiro[4.5]dec-1-en-4-one]",123
24,"Cc1cc2[nH]c(=O)oc2c(C)c1CCS(=O)(=O)N1CCC2(CC1)N=C([C@H]1CC[C@H](C)CC1)NC2=O [Compound 671, 8-[2-(5,7-Dimethyl-2-oxo-2,3-dihydro-benzoxazol-6-yl)-ethanesulfonyl]-2-(4-methyl-cyclohexyl)-1,3,8-triaza-spiro[4.5]dec-1-en-4-one]",81
